How the values were obtained:
[1] = target: T1, vascular endothelial growth factor (VEGF) (Homo sapiens, UniProt P15692); experiment: ELISA for determination of binding of VEGF to heparin; details: for IC50: inhibition of VEGF binding to heparin, NI = no inhibition; for inhibition of VEGF binding to heparin: inhibition towards both growth factors
T1 sequence (P15692 27-191 isoform P15692-4): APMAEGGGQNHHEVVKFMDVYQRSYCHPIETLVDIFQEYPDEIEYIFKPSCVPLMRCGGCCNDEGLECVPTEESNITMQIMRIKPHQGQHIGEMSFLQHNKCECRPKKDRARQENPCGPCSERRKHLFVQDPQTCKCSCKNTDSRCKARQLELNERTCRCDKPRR
Method: Enzyme-linked immunosorbent assay (ELISA) for determination of binding of vascular endothelial growth factor (VEGF) to heparin: 96-well microplates were coated for 2 hours. at 23-25° C. with 5 μg/ml heparin-albumin (Rimon Biotech) and blocked with 1% bovine serum albumin (BSA) in phosphate buffer (PBS) with 0.05% Tween and 0.01% thimerosal for 2 hours. VEGF was added to the plates at a concentration of 10 ng/ml and the plates were thereafter incubated for 45 minutes at 23-25° C. The amount of VEGF bound to heparin was detected using anti-VEGF monoclonal antibody (Sigma Cat. No. V4758) at a concentration of 0.26 μg/ml and secondary antibodies Sheep anti-mouse IgG linked to horseradish peroxidase (1:2000) using 3,3′,5,5′-tetramethylbenzidine (TMB, Pierce Cat. No. 34021) as a substrate for peroxidase. The plates were read at 450 nm with a reference wavelength of 630 nm using a VERSAmax plate reader. […] Percent inhibition was calculated as compared with a control pre-incubated with a solution of 1% DMSO and the results are presented in Table 3 below.

[2] = target: T2, recombinant human pro-heparanase (H60) (Homo sapiens, UniProt Q9Y251); experiment: Pro-heparanase (H60) activation in a cell-based assay; details: inhibition of pro-heparanase activation in CHO cells; NI = no inhibition
T2 construct: Heparanase maturation involves the removal of the signal peptide, transforming the 65 kDa pre-pro-heparanase into a 60 kDa pro-heparanase; made in house
T2 sequence (Q9Y251 36-543): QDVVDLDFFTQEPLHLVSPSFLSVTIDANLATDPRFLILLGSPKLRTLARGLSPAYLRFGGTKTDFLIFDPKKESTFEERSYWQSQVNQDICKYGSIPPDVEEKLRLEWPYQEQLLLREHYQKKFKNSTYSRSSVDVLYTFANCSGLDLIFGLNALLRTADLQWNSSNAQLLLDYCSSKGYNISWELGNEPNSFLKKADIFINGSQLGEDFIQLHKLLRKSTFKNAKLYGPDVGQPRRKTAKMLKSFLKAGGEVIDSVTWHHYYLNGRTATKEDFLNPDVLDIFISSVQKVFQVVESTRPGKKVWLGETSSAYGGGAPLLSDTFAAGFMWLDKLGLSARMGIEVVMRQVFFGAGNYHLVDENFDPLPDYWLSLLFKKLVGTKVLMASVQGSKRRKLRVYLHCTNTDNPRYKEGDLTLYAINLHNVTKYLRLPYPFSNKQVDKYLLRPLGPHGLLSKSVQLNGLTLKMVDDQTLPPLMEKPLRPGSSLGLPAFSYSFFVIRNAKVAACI
Method: Pro-heparanase (H60) activation in a cell-based assay: Chinese hamster ovary (CHO) cells were grown in complete F12 medium supplemented with 10% fetal calf serum (FCS). […] The plates were incubated for 24 hours in a 37° C. humidified incubator with 5% CO2. […] The plates were further incubated for additional 4 hours. The pro-heparanase was allowed to internalize by the cells and further processed to generate the active 53 kDa heparanase. At the end of the incubation, the cells were lysed by three consecutive cycles of freezing and thawing in a −80° C. freezer and a 37° C. shaker.
The rigidified compounds described herein were tested for inhibition of pro-heparanase activation in the cell-based assay described above.

[3] = target: β-FGF (Homo sapiens, UniProt P09038); experiment: ELISA for determination of binding of β-FGF to heparin; details: for IC50: inhibition of β-FGF binding to heparin, NI = no inhibition; for inhibition of β-FGF binding to heparin: inhibition towards both growth factors
β-FGF, sequence (P09038 143-288): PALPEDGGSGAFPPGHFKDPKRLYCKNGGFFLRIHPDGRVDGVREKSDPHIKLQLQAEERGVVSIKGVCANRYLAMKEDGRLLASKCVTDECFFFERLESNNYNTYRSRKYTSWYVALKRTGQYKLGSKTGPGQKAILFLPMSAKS
Method: ELISA for determination of binding of β-FGF to heparin: 96-well microplates were coated for 2 hours at 23-25° C. with 5 μg/ml heparin-albumin (Rimon Biotech) and blocked with 1% BSA in PBS, with 0.05% Tween, and 0.01% thimerosal for 2 hours. β-FGF was added to the plates at a concentration of 10 ng/ml and plates were incubated for 45 minutes at 23-25° C. The amount of β-FGF bound to heparin was detected using anti-FGF monoclonal antibody (Sigma Cat. No. F6162) at a concentration of 2.5 ng/ml and secondary antibodies Sheep anti-mouse IgG linked to horseradish peroxidase (1:3000) TMB (Pierce Cat. No. 34021) was used as a substrate for peroxidase. The plates were read at 450 nm with a reference wavelength of 630 nm using a VERSAmax plate reader.

Molecule | IC50 [1] | inhibition of VEGF binding to heparin [1] | IC50 [2] | IC50 [3] | inhibition of β-FGF binding to heparin [3]
CON(C)C(=O)CCCN1C(=O)c2cc3oc(-c4ccc([N+](=O)[O-])cc4)cc3n2C1=S [Compound 3, N-methoxy-N-methyl-4-[2-(4-nitro-phenyl)-6-oxo-4-thioxo-6H-1-oxa-3b,5-diaza-cyclopenta[a]pentalen-5-yl]-butyramide] | 250 nM | sub-micromolar |  | 90 nM | sub-micromolar
CCOC(=O)CC(C)(C)CN1C(=O)c2cc3oc(-c4ccc([N+](=O)[O-])cc4)cc3n2C1=S [Compound 7, 3,3-dimethyl-4-[2-(4-nitro-phenyl)-6-oxo-4-thioxo-6H-1-oxa-3b,5-diaza-cyclopenta[a]pentalen-5-yl]-butyric acid ethyl ester] | 100 nM | sub-micromolar | 2600 nM | 50 nM | sub-micromolar
CCOC(=O)CCCN1C(=O)c2cc3oc(-c4ccc([N+](=O)[O-])cc4)cc3n2C1=S [Compound 1, ethyl 4-[2-(4-nitro-phenyl)-6-oxo-4-thioxo-6H-1-oxa-3b,5-diaza-cyclopenta[a]pentalen-5-yl]-butyric acid ethyl ester] | 130 nM |  |  | 140 nM | 
CC(C)(CC(=O)O)CN1C(=O)c2cc3oc(-c4ccc([N+](=O)[O-])cc4)cc3n2C1=S [Compound 8, 3,3-Dimethyl-4-[2-(4-nitro-phenyl)-6-oxo-4-thioxo-6H-1-oxa-3b,5-diaza-cyclopenta[a]pentalen-5-yl]-butyric acid] |  |  | 780 nM |  | 
CC(C)(CC(=O)NO)CN1C(=O)c2cc3oc(-c4ccc([N+](=O)[O-])cc4)cc3n2C1=S [Compound 9, N-hydroxy-3,3-dimethyl-4-[2-(4-nitro-phenyl)-6-oxo-4-thioxo-6H-1-oxa-3b,5-diaza-cyclopenta[a]pentalen-5-yl]-butyramide] |  |  | 170 nM |  | 
4-[2-(4-Nitro-phenyl)-4,6-dioxo-6H-1-oxa-3b,5-diaza-cyclopenta[a]pentalen-5-yl]-butyric acid ethyl ester [Compound 30] | 100 nM |  | 3900 nM |  | 
CC(C)(CC(=O)On1nnc2ccccc2c1=O)CN1C(=O)c2cc3oc(-c4ccc(Cl)cc4)cc3n2C1=S [Compound 12, 4-[2-(4-Chloro-phenyl)-6-oxo-4-thioxo-6H-1-oxa-3b,5-diaza-cyclopenta[a]pentalen-5-yl]-3,3-dimethyl-butyric acid 4-oxo-4H-benzo[d][1,2,3]triazin-3-yl ester] | 260 nM | sub-micromolar |  | 160 nM | sub-micromolar
CCOP(=O)(CCCN1C(=O)c2cc3oc(-c4ccc(Cl)cc4)cc3n2C1=S)OCC [Compound 27, {3-[2-(4-chloro-phenyl)-6-oxo-4-thioxo-6H-1-oxa-3b,5-diaza-cyclopenta[a]pentalen-5-yl]-propyl}-phosphonic acid diethyl ester] | 300 nM |  | 260 nM |  | 

The remaining lines, values ahead:

IC50 [1] | inhibition of VEGF binding to heparin [1] | IC50 [2] | IC50 [3] | inhibition of β-FGF binding to heparin [3] | Molecule
180 nM | sub-micromolar | 160 nM | 440 nM | sub-micromolar | CN(C)CCCNC(=O)CC(C)(C)CN1C(=O)c2cc3oc(-c4ccc(Cl)cc4)cc3n2C1=S [Compound 15, 4-[2-(4-Chloro-phenyl)-6-oxo-4-thioxo-6H-1-oxa-3b,5-diaza-cyclopenta[a]pentalen-5-yl]-N-(3-dimethylamino-propyl)-3,3-dimethyl-butyramide]
170 nM | sub-micromolar | 6600 nM | 20 nM | sub-micromolar | COCCCN1C(=O)c2cc3oc(-c4ccc(Cl)cc4)cc3n2C1=S [Compound 28, 2-(4-Chloro-phenyl)-5-(3-methoxy-propyl)-4-thioxo-4,5-dihydro-1-oxa-3b,5-diaza-cyclopenta[a]pentalen-6-one]
2000 nM |  | 460 nM | 1400 nM |  | CC(C)(CC(=O)NCC(=O)O)CN1C(=O)c2cc3oc(-c4ccc(Cl)cc4)cc3n2C1=S [Compound 18, {4-[2-(4-Chloro-phenyl)-6-oxo-4-thioxo-6H-1-oxa-3b,5-diaza-cyclopenta[a]pentalen-5-yl]-3,3-dimethyl-butyrylamino}-acetic acid]
 |  | 16000 nM |  |  | CCOC(=O)CCCN1C(=O)c2cc3oc(Oc4ccc([N+](=O)[O-])cc4)cc3n2C1=S [Compound 33, ethyl 4-[2-(4-nitro-phenoxy)-6-oxo-4-thioxo-6H-1-oxa-3b,5-diaza-cyclopenta[a]pentalen-5-yl]-butyric acid ethyl ester]
420 nM | sub-micromolar | 320 nM | 350 nM | sub-micromolar | COC(=O)CN(C)C(=O)CC(C)(C)CN1C(=O)c2cc3oc(-c4ccc(Cl)cc4)cc3n2C1=S [Compound 20, ({4-[2-(4-Chloro-phenyl)-6-oxo-4-thioxo-6H-1-oxa-3b,5-diaza-cyclopenta[a]pentalen-5-yl]-3,3-dimethyl-butyryl}-methyl-amino)-acetic acid methyl ester]
 |  | 7000 nM |  |  | CCOC(=O)CCCn1c(=S)sc2c(I)snc21 [Compound 44, ethyl 4-(3-iodo-5-thioxo-thiazolo[4,5-c]isothiazol-6-yl)-butyric acid ethyl ester]
140 nM |  | 2700 nM | 120 nM |  | CCOC(=O)CCCN1C(=O)c2cc3oc(-c4cccc(C(F)(F)F)c4)cc3n2C1=S [Compound 25, ethyl 4-[6-oxo-4-thioxo-2-(3-trifluoromethyl-phenyl)-6H-1-oxa-3b,5-diaza-cyclopenta[a]pentalen-5-yl]-butyric acid ethyl ester]
480 nM | sub-micromolar | 370 nM | 810 nM | sub-micromolar | Cc1c(N2C(=O)c3cc4oc(-c5ccc(Cl)cc5)cc4n3C2=S)c(=O)n(-c2ccccc2)n1C [Compound 29, 2-(4-chloro-phenyl)-5-(1,5-dimethyl-3-oxo-2-phenyl-2,3-dihydro-1H-pyrazol-4-yl)-4-thioxo-4,5-dihydro-1-oxa-3b,5-diaza-cyclopenta[a]pentalen-6-one]
 |  | 25000 nM |  |  | CCOC(=O)CCCn1c(=S)sc2c(N)snc21 [Compound 43, ethyl 4-(3-amino-5-thioxo-thiazolo[4,5-c]isothiazol-6-yl)-butyric acid ethyl ester]
22500 nM |  |  | 11500 nM |  | CCOC(=O)CCCN1C(=O)c2cc3oc4ccc([N+](=O)[O-])cc4c3n2C1=S [Compound 38, ethyl 4-[2,3-(3-nitro-phenyl)-6-oxo-4-thioxo-6H-1-oxa-3b,5-diaza-cyclopenta[a]pentalen-5-yl]-butyric acid ethyl ester]
15000 nM |  |  |  |  | CCOC(=O)CCCn1c(=S)sc2c(-c3ccc(-c4ccc([N+](=O)[O-])cc4)o3)snc21 [Compound 45, 4-{3-[5-(4-nitro-phenyl)-furan-2-yl]-5-thioxo-thiazolo[4,5-c]isothiazol-6-yl}-butyric acid ethyl ester]

Reference: US7795255B2, “Rigidified compounds for modulating heparanase activity” (InSight Biopharmaceuticals Ltd., priority 2005, dated 2010)
